In patent US20120022147A1, “2, 6 XYLIDINE DERIVATIVES FOR THE TREATMENT OF PAIN” (KRISANI BIOSCIENCES (P) LTD, priority 2011, published 2012):
Where “and” joins values, the source holds several entries; their conditions need not be identical. Equal values may be shown once. Marks after values point to notes of the source that are not given here.

Test system: spinal nerve ligation model for neuropathic pain in rats
Test: Von Frey test for mechanical allodynia in the spinal nerve ligation (Chung) model of neuropathic pain
Assay type: in vivo, rat
Conditions: for mean Von Frey force required for withdrawal of left operated leg, Baseline: baseline before surgery and treatment
Text: Experimental animals were male SD rats with a starting weight of 230-250 grams. Total number of animals were n=90 for surgery and n=60 after selection. The animals were caged in groups of 3 in a temperature and humidity controlled area. They were maintained on a 12 hr light/dark cycle and had ad libitum access to food and water. Rodent models of neuropathic pain are used to investigate the underlying mechanisms of pain associated with damage to peripheral nerves and to evaluate the efficacy of novel. Tactile sensitivity was measured 7-21 days post-surgery using von Frey monofilaments before and following treatment with gabapentin and other compounds (La Buda et al. 2005).
Neuropathic pain inducement was done by following principles of Chung induced model. The SD rats were anesthetized using ketamine/xylazine sodium. The rats were shaved and placed in prone position for surgery. The L5-L6 spinal nerves were surgically litigated. The rats were returned to their cages for recuperation and recovery under comfortable warm conditions using heat lamps.
After seven days of surgery a pre selection was performed. Animals that indicate signs of post operative pain were to be selected to proceed. Pain is detected by observing when one or more of the criteria are met as follows. Licking of the operated paw, accompanied by gentle biting or pulling on the nails with the mouth; placing the leg in the air; bearing weight on the side contra-lateral to the nerve injury; deformities of the hind paw and abnormal posture and walking; weakness of the left hind paw. […] However, the animal must be able to move its leg to ensure that the L4 spinal nerve is intact. If the animal cannot move its leg, it was excluded from the study.
Second level of selection of the rats was done on day 14 after the surgery. Von Frey test was performed on the preselected rats after day 7 on day 14. Using Von Frey methodology, animals with a pain threshold of ≦26 g for the operated leg will be included in the study. After this selection step, the animals were randomly placed into their experimental groups.
Blank, positive control and test compound: Blank was just the medium used for dissolving other compounds. The positive control was Gabapentin and the test compound was the final compound of formula 1 discussed in the instant disclosure. Three types of experimental groups were formed. Different types of chemicals such as Vehicle and Control were used to determine the efficacy of the chemicals as well comparison of the instant disclosed compound of formula 1, with a positive control was performed. The final compound of the instant disclosure was administered at 100 mg/kg and 150 mg/kg body weight as two different groups. The Gabapentin was administered at 150 mg/kg body weight.
On day 14 blank compound and final compound will be administered once daily starting on study day 14 through study day 21. Gabapentin, the positive control, will be administered 2 hours prior to pain testing on study days 14 and 21. The Von Frey test was be performed prior to final compound administration (pre-final compound injection) and after final compound administration at 0.5 hours, 2 hours and 4.5 hours post-final compound injection on study days 14 and 21. Additionally, if the Von Frey response for the operated leg of one of the six treatment groups is significant at 4.5 hours, all the groups will be tested again at 6.5 hours. In all instances, unless decided otherwise in the course of the study, all dosing solutions are applied as once a day intra peritoneal (IP) administration on each of the repeated dosing sessions. After the termination of the study the animals were euthanized.
Pain Response Evaluation: Pain response was evaluated using Von Frey test for mechanical allodynia. The Von Frey test for mechanical allodynia is based on applying short pulses of pressure that are not painful to a naïve animal. […]

[1] = 150 mg/kg IP, study days 14 and 21
[2] = Table 9 (day 14), male SD rats, mean
[3] = Table 10 (day 21), male SD rats
[4] = study day 14, before first dose, male SD rats
[5] = study day 14, 150 mg/kg IP, male SD rats
[6] = study day 14, 150 mg/kg IP, male SD rats, 150 mg/kg
[7] = study day 14, 150 mg/kg IP, male SD rats, listed as gabapentin, 150 mg/kg
[8] = study day 21, before that day's dose, KRB-5b once daily from day 14, gabapentin on days 14 and 21, 150 mg/kg IP
[9] = study day 21, 150 mg/kg IP, male SD rats
[10] = study day 21, 150 mg/kg IP, male SD rats, 150 mg/kg

| Structure (SMILES) | analgesic effect on mechanical allodynia compared to Vehicle (in words) [1] | mean Von Frey force required for withdrawal of left operated leg, Baseline [2] | mean Von Frey force required for withdrawal of left operated leg, Baseline [3] | mean Von Frey force required for withdrawal of left operated leg, Pre-treatment [4] | mean Von Frey force required for withdrawal of left operated leg, 30 min Post treatment [5] | mean Von Frey force required for withdrawal of left operated leg, 6.5 hr Post treatment [5] | mean Von Frey force required for withdrawal of left operated leg, 2 hr Post treatment [6] | mean Von Frey force required for withdrawal of left operated leg, 4.5 hr Post treatment [6] | mean Von Frey force required for withdrawal of left operated leg, 2 hr Post treatment [7] | mean Von Frey force required for withdrawal of left operated leg, 4.5 hr Post treatment [7] | mean Von Frey force required for withdrawal of left operated leg, Pre-treatment [8] | mean Von Frey force required for withdrawal of left operated leg, 30 min Post treatment [9] | mean Von Frey force required for withdrawal of left operated leg, 6.5 hr Post treatment [9] | mean Von Frey force required for withdrawal of left operated leg, 2 hr Post treatment [10] | mean Von Frey force required for withdrawal of left operated leg, 4.5 hr Post treatment [10] | mean Von Frey force required for withdrawal of left operated leg, 4.5 hr Post treatment (study day 21, 150 mg/kg IP, male SD rats, listed as gabapentin, 150 mg/kg) | analgesic activity compared to gabapentin (in words) [1] | analgesic effect on mechanical allodynia compared to Vehicle (in words) (150 mg/kg IP, study days 14 and 21, listed as formula 1) | mean Von Frey force required for withdrawal of left operated leg, 2 hr Post treatment [9] |
| --- | --- | --- | --- | --- | --- | --- | --- | --- | --- | --- | --- | --- | --- | --- | --- | --- | --- | --- | --- |
| NCC1(CC(=O)O)CCCCC1 [Gabapentin, reference compound] | active only at 2 hours post dosing | 60.00 g | 60 g | 9.69 g | 9.85 g | 10.69 g | 35.69* g | 10.69 g | 35.69 ± 5.69 g | 10.69 ± 1.42 g | 7.92 g | 9.85 g | 9.62 g | 48.69±4.96 g and 48.69* g | 10.62 g | 10.62 ± 0.90 g |  |  |  |
| CCN(CCOC(=O)CCCCC1CCSS1)CC(=O)Nc1c(C)cccc1C (stereo not shown) [KRB-5b] | effective as a pain analgesic item | 60.00 g | 60 g | 11.00 g | 19.60 g | 16.40 g | 39.00±7.19 g and 39.00* g | 44.20±6.55 g and 44.20*# g |  |  | 15.40 g | 17.50 g | 10.80 g |  | 26.20±5.81 g and 26.20*# g |  | prolonged analgesic activity compared to gabapentin | effective in treating the spinal nerve ligation model for neuropathic pain in rats | 21.30# g |
